Six compounds from ChEMBL document CHEMBL6127036, “Chaperoning system: Intriguing target to modulate the expression of CFTR in cystic fibrosis” (Eur J Med Chem, 2024) can be followed below.

Assay [1] in a line: Inhibition of HSP70 (unknown origin) expressed in human HeLa cells. The assay is classed as cell-based.
For assay [2], the target named is Cystic fibrosis transmembrane conductance regulator (Homo sapiens) (UniProt P13569). The experiment in a line: Inhibition of CFTR (unknown origin) at 10 uM relative to control.
Cystic fibrosis transmembrane conductance regulator (Homo sapiens), sequence (P13569 whole entry, looked up): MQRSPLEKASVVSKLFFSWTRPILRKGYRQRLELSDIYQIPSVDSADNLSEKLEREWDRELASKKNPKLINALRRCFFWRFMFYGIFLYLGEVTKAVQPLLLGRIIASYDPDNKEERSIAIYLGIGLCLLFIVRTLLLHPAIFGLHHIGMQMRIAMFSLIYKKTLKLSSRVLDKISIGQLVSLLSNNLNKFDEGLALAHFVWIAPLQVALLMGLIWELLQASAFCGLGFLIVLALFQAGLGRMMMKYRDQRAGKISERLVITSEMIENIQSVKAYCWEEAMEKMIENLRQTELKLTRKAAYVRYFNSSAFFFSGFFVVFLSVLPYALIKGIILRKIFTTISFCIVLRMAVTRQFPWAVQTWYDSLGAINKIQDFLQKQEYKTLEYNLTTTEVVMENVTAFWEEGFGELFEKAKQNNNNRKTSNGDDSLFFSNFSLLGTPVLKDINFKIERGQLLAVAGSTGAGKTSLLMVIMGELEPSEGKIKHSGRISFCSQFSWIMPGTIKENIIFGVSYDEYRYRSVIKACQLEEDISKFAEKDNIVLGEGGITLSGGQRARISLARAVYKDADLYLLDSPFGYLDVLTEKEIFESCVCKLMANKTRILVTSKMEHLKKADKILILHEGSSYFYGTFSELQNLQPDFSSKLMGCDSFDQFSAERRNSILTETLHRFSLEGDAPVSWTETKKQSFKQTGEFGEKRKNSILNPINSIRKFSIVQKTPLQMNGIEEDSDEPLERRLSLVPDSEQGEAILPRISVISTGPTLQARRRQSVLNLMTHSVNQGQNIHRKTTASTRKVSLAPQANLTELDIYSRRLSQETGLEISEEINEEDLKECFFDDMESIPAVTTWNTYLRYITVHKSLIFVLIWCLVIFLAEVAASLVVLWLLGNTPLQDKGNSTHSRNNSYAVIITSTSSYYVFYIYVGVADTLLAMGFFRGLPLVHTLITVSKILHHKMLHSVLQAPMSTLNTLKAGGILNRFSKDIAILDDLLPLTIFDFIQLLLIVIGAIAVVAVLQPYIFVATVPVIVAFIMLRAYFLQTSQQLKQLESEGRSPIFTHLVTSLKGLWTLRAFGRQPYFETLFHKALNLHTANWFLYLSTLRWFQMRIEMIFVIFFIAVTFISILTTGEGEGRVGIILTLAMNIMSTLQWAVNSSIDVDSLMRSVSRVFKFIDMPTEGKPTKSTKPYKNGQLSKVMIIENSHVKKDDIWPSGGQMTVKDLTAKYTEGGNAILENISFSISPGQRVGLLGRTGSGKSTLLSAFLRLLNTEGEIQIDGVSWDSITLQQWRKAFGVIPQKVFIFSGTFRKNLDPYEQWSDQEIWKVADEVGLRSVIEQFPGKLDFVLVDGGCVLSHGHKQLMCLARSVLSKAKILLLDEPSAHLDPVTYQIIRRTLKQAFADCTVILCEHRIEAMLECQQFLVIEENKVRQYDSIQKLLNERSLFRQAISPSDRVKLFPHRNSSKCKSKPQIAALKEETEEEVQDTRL
The test system of assay [3] is Cystic fibrosis transmembrane conductance regulator (Homo sapiens), P13569 [F508del]. The experiment in a line: Inhibition of CFTR F508del mutant (unknown origin) in FRT cells. The assay is classed as cell-based.
Cystic fibrosis transmembrane conductance regulator (Homo sapiens), P13569 [F508del], sequence (P13569 as listed by the source): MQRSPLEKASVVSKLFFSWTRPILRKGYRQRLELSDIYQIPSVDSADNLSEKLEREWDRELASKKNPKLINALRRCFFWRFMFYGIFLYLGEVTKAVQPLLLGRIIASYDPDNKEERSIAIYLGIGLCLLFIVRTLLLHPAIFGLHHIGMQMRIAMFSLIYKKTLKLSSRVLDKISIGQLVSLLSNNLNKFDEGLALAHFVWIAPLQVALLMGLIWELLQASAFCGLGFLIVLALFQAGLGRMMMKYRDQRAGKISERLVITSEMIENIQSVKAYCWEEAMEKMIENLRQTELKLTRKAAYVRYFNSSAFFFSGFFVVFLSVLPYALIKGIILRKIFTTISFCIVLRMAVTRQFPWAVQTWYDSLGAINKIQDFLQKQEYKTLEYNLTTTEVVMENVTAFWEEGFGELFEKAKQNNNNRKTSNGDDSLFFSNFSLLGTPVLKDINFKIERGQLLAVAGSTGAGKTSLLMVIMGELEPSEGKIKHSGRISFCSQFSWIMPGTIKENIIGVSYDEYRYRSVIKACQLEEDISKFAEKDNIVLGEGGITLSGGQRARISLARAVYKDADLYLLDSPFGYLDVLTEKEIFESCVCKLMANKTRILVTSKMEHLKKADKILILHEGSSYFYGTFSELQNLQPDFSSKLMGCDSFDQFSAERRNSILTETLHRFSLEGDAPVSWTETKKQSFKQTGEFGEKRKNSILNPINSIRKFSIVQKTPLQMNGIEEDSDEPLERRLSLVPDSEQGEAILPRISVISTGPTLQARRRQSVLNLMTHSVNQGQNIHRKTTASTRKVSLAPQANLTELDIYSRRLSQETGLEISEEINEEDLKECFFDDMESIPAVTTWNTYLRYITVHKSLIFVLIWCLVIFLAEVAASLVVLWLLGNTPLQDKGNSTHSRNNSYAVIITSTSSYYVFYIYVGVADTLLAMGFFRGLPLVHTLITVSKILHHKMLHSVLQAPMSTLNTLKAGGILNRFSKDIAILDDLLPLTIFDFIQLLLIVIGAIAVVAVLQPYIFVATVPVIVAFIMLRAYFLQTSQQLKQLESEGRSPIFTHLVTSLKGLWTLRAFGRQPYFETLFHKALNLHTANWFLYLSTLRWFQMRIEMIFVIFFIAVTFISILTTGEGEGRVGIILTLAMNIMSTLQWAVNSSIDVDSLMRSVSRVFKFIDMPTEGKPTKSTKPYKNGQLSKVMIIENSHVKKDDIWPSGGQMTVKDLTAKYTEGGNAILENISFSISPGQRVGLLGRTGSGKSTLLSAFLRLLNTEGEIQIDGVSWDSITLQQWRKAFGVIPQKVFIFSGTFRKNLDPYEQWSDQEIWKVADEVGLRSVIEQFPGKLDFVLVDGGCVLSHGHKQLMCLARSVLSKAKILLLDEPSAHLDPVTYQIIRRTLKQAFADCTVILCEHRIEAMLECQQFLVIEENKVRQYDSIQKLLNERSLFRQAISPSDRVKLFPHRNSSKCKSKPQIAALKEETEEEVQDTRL
Assay [4] concerns the target Cystic fibrosis transmembrane conductance regulator (Homo sapiens) (UniProt P13569). The experiment in a line: Activation of human CFTR expressed in rat FRT cells at 30 uM relative to control. The assay is classed as cell-based. The following applies: filed as activator.

Take `N=C(N)NCCCCCCC(=O)N[C@@H](O)C(=O)NCCCCNCCCN`: in assay [1], the EC50 was 5.4 µM. `N#CC1=C(N)Oc2[nH]nc(-c3ccc(F)cc3)c2C1c1c[nH]nc1-c1ccc(F)cc1` (stereo unspecified): the inhibition in assay [2] worked out at 70%. In assay [3], `CCN(CC)c1ccc(N/N=C2\C(=O)C=Cc3ccccc32)cc1` came in with a fold change (FC) of 15. Still for that read-out and setting: in the case of `N#CCc1nnc(-c2ccccn2)[nH]1` it was 25.

For the compound `O=C1CCC[C@@H]2[C@H]3CCCN4CCC[C@@H](CN12)[C@@H]34`, the Activity in assay [4] came to 53%. In assay [1], `N=C(N)NCCCC[C@H](O)CC(=O)N[C@@H](O)C(=O)NCCCCNCCCN` showed an EC50 of 5.4 µM.
